Like-named read-outs stand apart in the source and are kept apart here.
Assays:
hFTase = hFTase (Homo sapiens, UniProt P49354+P49356); assay: In vitro hFTase inhibition: incorporation of [3H]FPP into recombinant H-Ras-CVLS; type: biochemical; conditions: for selectivity (ratio of GGTase-I to FTase IC50s): GGTase-I IC50 / hFTase IC50; for GGTase-I/FTase selectivity: selectivity for hFTase over GGTase-I; for IC50: in vitro, average of three independent assays (n = 3) unless stated, errors are standard deviations
farnesylation of H-Ras = assay: Whole cell inhibition of H-Ras processing (farnesylation), immunoblot, oncogenic H-Ras-transformed NIH3T3 cells; type: cell-based, mouse; conditions: Mus musculus, NIH3T3, whole cells, oncogenic H-Ras-transformed NIH3T3; n = 3 unless stated; read-out: H-Ras processing IC50
Description: (§1) In vitro inhibition assays for FTase and GGTase-I were conducted by measuring the incorporation of [^3H]FPP and [^3H]GGPP into recombinant H-Ras-CVLS and H-Ras-CVLL, respectively, as previously described (Vogt, et al., Protein geranylgeranylation, not farnesylation, is required for the G1 to S phase transition in mouse fibroblasts. Oncogene, 1996, 13, 1991-1999). The in vivo inhibition of farnesylation and geranylgeranylation was determined based on the level of inhibition by synthetic compounds of H-Ras and Rap1A processing, respectively (Sun, et al., Both farnesyltransferase and geranylgeranyltransferase I inhibitors are required for inhibition of oncogenic K-Ras prenylation but each alone is sufficient to suppress human tumor growth in nude mouse xenografts. Oncogene, 1998, 16, 1467-1473). […] The separated proteins were transferred to nitrocellulose and immunoblotted using an anti-Ras antibody (Y13-258) or an anti-Rap1A antibody (SantaCruz Biotechnology, Santa Cruz, Calif.), respectively. Antibody reactions were visualized using either peroxidase-conjugated goat anti-rat IgG or goat anti-rabbit IgG (Jackson ImmunoResearch, West Grove, Pa.) and an enhanced chemiluminescence detection system.
(§2) Briefly, in vitro inhibition assays for hFTase and GGTase-I were carried out by measuring the incorporation of [^3H]FPP and [^3H]GGPP into recombinant H-Ras-CVLS and H-Ras-CVLL, respectively, as described previously (Vogt et al., Protein geranylgeranylation, not farnesylation, is required for G1 to S phase transition in mouse fibroblasts. Oncogene. 1996; 13:1991-1999). Whole cell inhibition of farnesylation and geranylgeranylation were determined based on the level of inhibition by synthetic compounds of H-Ras and Rap1A processing, respectively (Sun, et al., Both farnesyltransferase and geranylgeranyltransferase I inhibitors are required for inhibition of oncogenic K-Ras prenylation but each alone is sufficient to suppress human tumor growth in nude mouse xenografts. Oncogene. 1998; 16:1467-1473).

[1] = system: geranylgeranylation of Rap1A; assay: Whole cell inhibition of Rap1A processing (geranylgeranylation), immunoblot, oncogenic H-Ras-transformed NIH3T3 cells; type: cell-based, mouse; conditions: whole cells, oncogenic H-Ras-transformed NIH3T3, n = 3 unless stated, read-out: Rap1A processing IC50
Description: as §1, §2

GGTase-I = GGTase-I (Homo sapiens, UniProt P49354+P53609); assay: In vitro GGTase-I inhibition: incorporation of [3H]GGPP into recombinant H-Ras-CVLL; type: biochemical; conditions: average of n = 3 unless stated, errors are standard deviations, read-out: GGTase-1 IC50

Row | SMILES | selectivity (ratio of GGTase-I to FTase IC50s) (hFTase) | IC50 (farnesylation of H-Ras) [µM] | IC50 ([1]; Mus musculus) [µM] | GGTase-I/FTase selectivity (hFTase) | IC50 (hFTase) [µM] | IC50 (GGTase-I) [µM] | IC50 [1] [µM]
1 | C#CCN(CCN(Cc1cncn1C)c1ccc(C#N)cc1)S(=O)(=O)c1cn(C)cn1 [1aa] | >14 | 6 | > 10 |  |  |  | 
2 | Cn1cnc(S(=O)(=O)N(CCN(Cc2cncn2C)c2ccc(C#N)cc2)CC(=O)NC(C)(C)C)c1 [1ae] | 7.1 | > 10 | > 10 |  |  |  | 
3 | Cn1cnc(S(=O)(=O)N(CCN(Cc2cncn2C)c2ccc(C#N)cc2)Cc2ccncc2)c1 [1af] | >139 | > 10 | > 10 |  |  |  | 
4 | Cn1cnc(S(=O)(=O)N(CCN(Cc2cncn2C)c2ccc(C#N)cc2)CCn2cccc2)c1 [1ag] | 17 | 4.3 ± 1.5 | > 10 |  |  |  | 
5 | Cc1nc(C)c(CN(CCN(Cc2cncn2C)c2ccc(C#N)cc2)S(=O)(=O)c2cn(C)cn2)s1 [1am, [N-(2,4-Dimethyl-thiazol-5-ylmethyl), N-{2-[(4-cyanophenyl)-(3-methyl-3H-imidazol-4-ylmethyl)-amino]-ethyl}]1-methyl-1H-imidazole-4-sulfonamide] | >1.6 | > 10 | > 10 |  |  |  | 
6 | Cn1cnc(S(=O)(=O)N(CCN(Cc2cncn2C)c2ccc(C#N)cc2)Cc2ccc(C#N)cc2)c1 [1as] | 18 | > 10 | > 10 |  |  |  | 
7 | Cn1cnc(S(=O)(=O)N(CCN(Cc2cncn2C)c2ccc(C#N)cc2)CC2CC2)c1 [1aw, [N-(Cyclopropylmethyl), N-{2-[(4-cyanophenyl)-(3-methyl-3H-imidazol-4-ylmethyl)-amino]-ethyl}]1-methyl-1H-imidazole-4-sulfonamide] | >17 | > 10 | > 10 |  |  |  | 
8 | Cn1cncc1CN(CCN(Cc1ccccc1)S(=O)(=O)C1CC1)c1ccc(C#N)cc1 [1c, N-Benzyl, N-{2-[(4-cyanophenyl)-(3-methyl-3H-imidazol-4-ylmethyl)-amino]-ethyl}cyclopropanesulfonamide] | 65 |  |  |  | 0.085 ± 0.0007 | 5.5 ± 2.7 | 
9 | Cn1cncc1CN(CCN(CC1CCCCC1)S(=O)(=O)c1ccccn1)c1ccc(C#N)cc1 [21a, N-(2-((4-cyanophenyl)((1-methyl-1H-imidazol-5-yl)methyl)amino)ethyl)-N-(cyclohexylmethyl)pyridine-2-sulfonamide] | 1.5 | 0.268 ± 0.212 | 6.2 ± 1.2 |  |  |  | 
10 | Cn1cncc1CN(CCN(CC1CCCCC1)S(=O)(=O)c1ccccn1)c1ccc(C#N)cn1 [21c, N-(2-((5-cyanopyridin-2-yl)((1-methyl-1H-imidazol-5-yl)methyl)amino)ethyl)-N-(cyclohexylmethyl)pyridine-2-sulfonamide] | 2 | 0.288 ± 0.251 | 19 |  |  |  | 
11 | Cn1cnc(S(=O)(=O)N(CCN(Cc2cncn2C)c2ccc(C#N)cc2)Cc2ccoc2)c1 [compound 1ah, [N-(Furan-3-ylmethyl), N-{2-[(4-cyanophenyl)-(3-methyl-3H-imidazol-4-ylmethyl)-amino]-ethyl}]1-methyl-1H-imidazole-4-sulfonamide] | 19 | 0.65 | > 10 |  |  |  | 
12 | Cc1noc(C)c1CN(CCN(Cc1cncn1C)c1ccc(C#N)cc1)S(=O)(=O)c1cn(C)cn1 [compound 1al, [N-(3,5-Dimethyl-isoxazol-4-ylmethyl), N-{2-[(4-cyanophenyl)-(3-methyl-3H-imidazol-4-ylmethyl)-amino]-ethyl}]1-methyl-1H-imidazole-4-sulfonamide] | 2.7 | > 10 | > 10 |  |  |  | 
13 | Cc1nn(C)c(C)c1CN(CCN(Cc1cncn1C)c1ccc(C#N)cc1)S(=O)(=O)c1cn(C)cn1 [compound 1an, [N-(1,3,5-Trimethyl-1H-pyrazol-4-ylmethyl), N-{2-[(4-cyanophenyl)-(3-methyl-3H-imidazol-4-ylmethyl)-amino]-ethyl}]1-methyl-1H-imidazole-4-sulfonamide] | >1.9 |  |  |  | 5.3 ± 1.7 | > 10 | 
14 | CCCS(=O)(=O)N(CCN(Cc1cncn1C)c1ccc(C#N)cc1)Cc1ccccc1 [compound 1b, N-Benzyl, N-{2-[(4-cyanophenyl)-(3-methyl-3H-imidazol-4-ylmethyl)-amino]-ethyl}propane-1-sulfonamide] | 85 |  | > 10 |  | 0.048 ± 0.035 | 4.1 ± 1.7 | 
15 | Cn1cncc1CN(CCN(Cc1ccccc1)S(=O)(=O)c1ccccn1)c1ccc(C#N)cc1 [compound 1f] |  | 0.09 ± 0.06 | > 10 |  |  |  | 
16 | Cn1cnc(S(=O)(=O)N(CCN(Cc2cnc[nH]2)c2ccccc2)Cc2ccccc2)c1 [compound 3] | 1.6 |  | > 10 |  | 6.3 ± 0.36 |  | 

Next, values leading:

Row | selectivity (ratio of GGTase-I to FTase IC50s) (hFTase) | IC50 (farnesylation of H-Ras) [µM] | IC50 ([1]; Mus musculus) [µM] | GGTase-I/FTase selectivity (hFTase) | IC50 (hFTase) [µM] | IC50 (GGTase-I) [µM] | IC50 [1] [µM] | SMILES
17 | 5.3 | > 10 | > 10 | about 5 fold |  |  |  | C=C(C)CN(CCN(Cc1cncn1C)c1ccc(C#N)cc1)S(=O)(=O)c1cn(C)cn1 [1ac]
18 | 31 | 5.7 ± 1.5 | > 10 |  |  |  |  | C=C(Br)CN(CCN(Cc1cncn1C)c1ccc(C#N)cc1)S(=O)(=O)c1cn(C)cn1 [1ad]
19 | >2.7 | > 2 | > 2 |  |  |  |  | Cn1cnc(S(=O)(=O)N(CCN(Cc2cncn2C)c2ccc(C#N)cc2)CC2CCN(C(=O)OC(C)(C)C)CC2)c1 [1ay]
20 | 200 |  | > 10 |  |  | ≥ 10 |  | Cn1cncc1CN(CCN(Cc1ccccc1)S(=O)(=O)c1cccs1)c1ccc(C#N)cc1 [1e]
21 |  |  | > 10 | 333 fold |  | ≥ 10 |  | Cn1cncc1CN(CCN(Cc1ccccc1)S(=O)(=O)c1cccc2cccnc12)c1ccc(C#N)cc1 [1g]
22 | 63 | 0.5 ± 0.3 | > 10 |  |  | ≥ 10 |  | CN(C)c1cccc2c(S(=O)(=O)N(CCN(Cc3cncn3C)c3ccc(C#N)cc3)Cc3ccccc3)cccc12 [1h]
23 |  | 1.9 ± 1.2 | > 10 |  |  |  |  | Cn1cnc(S(=O)(=O)N(CCN(Cc2cncn2C)c2ccc(C#N)cc2)Cc2ccccc2)c1 [compound 1a]
24 | >20 | > 10 | > 10 |  |  |  |  | Cn1cnc(S(=O)(=O)N(CCN(Cc2cncn2C)c2ccc(C#N)cc2)CC2CCN(c3ncccn3)CC2)c1 [compound 1az]
25 | 6.0 | 5.7 ± 1.2 | > 10 |  | 0.73 ± 0.02 | 4.4 |  | Cn1cnc(S(=O)(=O)N(CCN(Cc2cnc[nH]2)c2ccc(Br)cc2)Cc2ccccc2)c1 [compound 4]
26 | 6.7 | 1.6 ± 1.3 |  |  | 0.079 ± 0.03 | 0.53 ± 0.17 | > 10 | Cn1cnc(S(=O)(=O)N(CCN(Cc2cncn2C)c2ccc(Br)cc2)Cc2ccccc2)c1 [compound 5]

Reference: patent US9040563B2, “Dual inhibitors of farnesyltransferase and geranylgeranyltransferase I” (H. Lee Moffitt Cancer Center and Research Institute, Inc., priority 2010, dated 2015)
